Results on 41 compounds are retold here after patent US20250282746A1, “HALOGEN-SUBSTITUTED ISOINDOLINE COMPOUND AND USE THEREOF” (CHENGDU FENDI PHARMACEUTICAL CO., LTD., priority 2022, published 2025).

Assay [1] deals with T1, GSPT1 protein (Homo sapiens, UniProt P15170).
T1 construct: The whole cell lysate was prepared using a RIPA lysis buffer; endogenous in cells; host or cells: NB-4 cells
Description: Degradation of GSPT1 protein in NB-4 cells (Western blot). It counts as cell-based. The conditions noted are these: NB-4 cells, compound 1 μM, 6 h; read-out: GSPT1 degradation. Here is the method:
150 μL of DMSO and the compounds (1 μM) were added, and the mixture was incubated in an incubator at 5% CO2 and 37° C. for 6 h. The cells were centrifuged, and the culture medium was discarded. PBS was added for washing and then discarded. The whole cell lysate was prepared using a RIPA lysis buffer containing a protease inhibitor cocktail and a phosphatase inhibitor, and incubated on ice for 30 min. The mixture was centrifuged, and the cell debris was discarded. The whole cell lysate supernatant was collected and transferred to a fresh EP tube. Samples were prepared using a loading buffer after a BCA protein assay. The samples were incubated in a metal bath at 100° C. for 10 min.
The samples were electrophoretically separated from proteins on a 4-20% precast gel (SDS-PAGE gel), transferred to a PVDF membrane, blocked with 5% NFDM/TBST for 1 h at room temperature, co-incubated overnight at 4° C. with the primary antibody, and co-incubated for 2 h at room temperature with the secondary antibody on the next day. The signals were detected on the […]™ imaging system.

Assay [2] deals with MV-4-11 cells. Description: Antiproliferative activity against MV-4-11 cells (CellTiter-Glo, 72 h). It counts as cell-based. As to conditions: Homo sapiens, MV4-11; MV-4-11 cells, 72 h; read-out: Antiproliferative activity IC50. Here is the method:
MV411 cells in the logarithmic growth phase were diluted in a medium (RPMI+10% FBS) and plated at 5,000 cells/well in 96-well whole black plates (WHB) with 50 μL/well. After plating, the plates were incubated in an incubator at 5% CO2 and 37° C. for 24 h before the compounds were added. The compounds were prepared into a 10 mM stock solution in DMSO and diluted in a culture medium to the desired concentrations (a final DMSO concentration of 0.2%). […] The plates were incubated at 5% CO2 and 37° C. for 72 h. After the incubation was complete, the plates were equilibrated at room temperature for 30 min. CellTiter-Glo® Reagent (Promega G7573) was added at 100 μL/well. The plates were shaken for 12 min on a microplate shaker. The luminescence value was measured at room temperature by the GloMax navigator (Promega GM2010).
A general note: Cellular ATP, detected with luciferase, serves as a proxy for viable cell number.

Each structure is given as a SMILES string.

T1 sequence (P15170 whole entry): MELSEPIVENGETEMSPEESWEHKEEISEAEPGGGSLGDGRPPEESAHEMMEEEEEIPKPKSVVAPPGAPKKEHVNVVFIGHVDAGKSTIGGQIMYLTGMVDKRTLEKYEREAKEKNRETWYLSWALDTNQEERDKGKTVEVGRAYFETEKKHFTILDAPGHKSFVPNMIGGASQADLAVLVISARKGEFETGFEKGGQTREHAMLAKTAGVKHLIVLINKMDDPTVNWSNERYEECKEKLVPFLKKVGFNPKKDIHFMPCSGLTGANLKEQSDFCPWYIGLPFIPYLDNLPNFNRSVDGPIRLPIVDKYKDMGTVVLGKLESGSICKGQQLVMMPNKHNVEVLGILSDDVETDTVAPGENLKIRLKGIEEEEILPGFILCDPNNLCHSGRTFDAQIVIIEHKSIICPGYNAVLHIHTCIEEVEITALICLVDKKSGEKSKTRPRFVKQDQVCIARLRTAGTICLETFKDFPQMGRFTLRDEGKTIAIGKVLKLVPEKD

In the case of `C#Cc1ccc(C(=O)NCc2ccc3c(c2F)CN(C2CCC(=O)NC2=O)C3=O)cc1` (stereo not shown) [FDAB-96], in assay [1], the inhibition at 1 µM is above 80%. In assay [2], the half-inhibitory concentration (IC50) is 1 to 10 nM.
In the case of `O=C1CCC(N2Cc3c(ccc(CNC(=O)c4ccc(F)cc4)c3Cl)C2=O)C(=O)N1` (stereo not shown) [FDAB-77], the inhibition at 1 µM in assay [1] is below 25%. In assay [2], the IC50 was above 1000 nM.
With `CCCCCCCCCCCCSC(=S)SC(C)(C)C(=O)NCc1ccc2c(c1F)CN(C1CCC(=O)NC1=O)C2=O` (stereo not shown) [FDAB-163], the inhibition at 1 µM in assay [1] is below 25%. The IC50 in assay [2] was above 1000 nM.
On to `O=C1CCC(N2Cc3cc(CNC(=O)c4cc5cc(Cl)ccc5o4)c(Cl)cc3C2=O)C(=O)N1` (stereo not shown) [FDAB-72], for which the inhibition at 1 µM in assay [1] is below 25%. In assay [2], the half-inhibitory concentration (IC50) was above 1000 nM.
Regarding `CC(C)(C)OC(=O)NCc1cc(F)c2c(c1)CN(C1CCC(=O)NC1=O)C2=O` (stereo not shown) [FDAB-8], the inhibition at 1 µM in assay [1] is below 25%. Further, in assay [2], the IC50 was above 1000 nM.
For the compound `O=C1CCC(N2Cc3c(ccc(CNC(=O)c4cc5cc(F)ccc5o4)c3Cl)C2=O)C(=O)N1` (stereo not shown) [FDAB-69], the inhibition at 1 µM in assay [1] lay within 50 to 80%. The IC50 in assay [2] fell in the range of 1 to 10 nM.
In the case of `O=C1CCC(N2Cc3c(ccc(CNC(=O)c4ccc(N5CCCC5)cc4)c3F)C2=O)C(=O)N1` (stereo not shown) [FDAB-110], the inhibition at 1 µM in assay [1] was above 80%. For the same compound, the IC50 in assay [2] is below 1 nM.
Taken in the same sequence, the figures for `CC(C)(C)OC(=O)NCc1cc2c(cc1Cl)C(=O)N(C1CCC(=O)NC1=O)C2` (stereo not shown) [FDAB-14] were below 25% and above 1000 nM.
For the compound `CC(C)OC(=O)N1C(=O)CCC(N2Cc3c(ccc(CNC(=O)c4ccc(Cl)cc4)c3F)C2=O)C1=O` (stereo not shown) [FDAB-127], in assay [1], the inhibition at 1 µM was below 25%. The IC50 in assay [2] was above 1000 nM.
Regarding `C=Cc1ccc(C(=O)NCc2ccc3c(c2F)CN(C2CCC(=O)NC2=O)C3=O)cc1` (stereo not shown) [FDAB-95], in assay [1], the inhibition at 1 µM is above 80%. Also, the IC50 in assay [2] was in the range of 1 to 10 nM.
Regarding `O=C1CCC(N2Cc3c(ccc(CNC(=O)c4ccc5cc6ccccc6cc5c4)c3F)C2=O)C(=O)N1` (stereo not shown) [FDAB-87], the inhibition at 1 µM in assay [1] was below 25%. Also, the half-maximal inhibitory concentration (IC50) in assay [2] was below 1 nM.
As for `N#Cc1ccc2c(c1F)CN(C1CCC(=O)NC1=O)C2=O` (stereo not shown) [FDAB-1], in assay [1], the inhibition at 1 µM is below 25%. The IC50 in assay [2] is above 1000 nM.
For the compound `N#Cc1cc2c(cc1Cl)C(=O)N(C1CCC(=O)NC1=O)C2` (stereo not shown) [FDAB-13], in assay [1], the inhibition at 1 µM is below 25%. Further, the IC50 in assay [2] is above 1000 nM.
On to `O=C1CCC(N2Cc3cc(CNC(=O)c4ccncn4)c(F)cc3C2=O)C(=O)N1` (stereo not shown) [FDAB-38], for which, in assay [1], the inhibition at 1 µM is below 25%. Further, in assay [2], the IC50 was above 1000 nM.
Take `Cc1nc2cc(C(=O)NCc3cc4c(cc3F)C(=O)N(C3CCC(=O)NC3=O)C4)ccc2s1` (stereo not shown) [FDAB-58]: the inhibition at 1 µM in assay [1] was above 80%. Besides, the concentration for half-maximal inhibition (IC50) in assay [2] is 10 to 100 nM.
On the same counts, the results for `O=C1CCC(N2Cc3c(ccc(CNC(=O)c4ccc5c(c4)C(=O)CC5)c3F)C2=O)C(=O)N1` (stereo not shown) [FDAB-106] are above 80% and 10 to 100 nM.
In the case of `O=C1CCC(N2Cc3cc(CNC(=O)c4cccc(O)c4)c(F)cc3C2=O)C(=O)N1` (stereo not shown) [FDAB-36], the inhibition at 1 µM in assay [1] was below 25%. For the same compound, in assay [2], the IC50 is above 1000 nM.
For `O=C(COc1c(Cl)cc(Cl)cc1Cl)NCc1ccc2c(c1F)CN(C1CCC(=O)NC1=O)C2=O` (stereo not shown) [FDAB-152], in assay [1], the inhibition at 1 µM was above 80%. The 50% inhibitory concentration (IC50) in assay [2] is below 1 nM.
Regarding `O=C(C#Cc1ccccn1)NCc1ccc2c(c1F)CN(C1CCC(=O)NC1=O)C2=O` (stereo not shown) [FDAB-148], the inhibition at 1 µM in assay [1] is above 80%. For the same compound, the IC50 in assay [2] is 1 to 10 nM.
As to `Cc1ccc(C(=O)NCc2ccc3c(c2Cl)CN(C2CCC(=O)NC2=O)C3=O)cc1F` (stereo not shown) [FDAB-122], the inhibition at 1 µM in assay [1] was below 25%. For the same compound, the concentration for half-maximal inhibition (IC50) in assay [2] lay within 100 to 1000 nM.
On the same counts, the results for `NCc1cc2c(cc1F)C(=O)N(C1CCC(=O)NC1=O)C2` (stereo not shown) [FDAB-6] are 50 to 80% and 10 to 100 nM.
Consider `NCc1ccc2c(c1Cl)CN(C1CCC(=O)NC1=O)C2=O` (stereo not shown) [FDAB-12], for which the inhibition at 1 µM in assay [1] is below 25%. The concentration for half-maximal inhibition (IC50) in assay [2] was above 1000 nM.
With `O=C(CCCc1ccc(I)cc1)NCc1ccc2c(c1F)CN(C1CCC(=O)NC1=O)C2=O` (stereo not shown) [FDAB-139], the inhibition at 1 µM in assay [1] was above 80%. In assay [2], the IC50 fell in the range of 1 to 10 nM.
`CCOC(=O)CN1C(=O)CCC(N2Cc3c(ccc(CNC(=O)c4ccc(Cl)cc4)c3F)C2=O)C1=O` (stereo not shown) [FDAB-126]: the inhibition at 1 µM in assay [1] is below 25%. Further, the concentration for half-maximal inhibition (IC50) in assay [2] is above 1000 nM.
As for `O=C1CCC(N2Cc3cc(CNC(=O)c4cnco4)c(F)cc3C2=O)C(=O)N1` (stereo not shown) [FDAB-43], in assay [1], the inhibition at 1 µM was below 25%. The IC50 in assay [2] is above 1000 nM.
In the case of `O=C1CCC(N2Cc3c(ccc(CNC(=O)c4ccc(F)cc4)c3F)C2=O)C(=O)N1` (stereo not shown) [FDAB-49], in assay [1], the inhibition at 1 µM is below 25%. Besides, the 50% inhibitory concentration (IC50) in assay [2] is above 1000 nM.
Turning to `O=C1CCC(N2Cc3c(ccc(CNC(=O)c4ccc(C5CC5)cc4)c3F)C2=O)C(=O)N1` (stereo not shown) [FDAB-97], the inhibition at 1 µM in assay [1] was above 80%. Further, the IC50 in assay [2] lay in the range of 1 to 10 nM.
With `O=C1CCC(N2Cc3cc(CNC(=O)c4ccc(Cl)cc4)c(F)cc3C2=O)C(=O)N1` (stereo not shown) [FDAB-23], the inhibition at 1 µM in assay [1] is above 80%. Besides, the IC50 in assay [2] lay in the range of 10 to 100 nM.
For `O=C1CCC(N2Cc3c(ccc(CNC(=O)c4cc5cc(Cl)ccc5o4)c3F)C2=O)C(=O)N1` (stereo not shown) [FDAB-47], the inhibition at 1 µM in assay [1] was above 80%. For the same compound, the half-inhibitory concentration (IC50) in assay [2] lay within 1 to 10 nM.
For `O=C1CCC(N2Cc3c(ccc(CNC(=O)c4cc5ccccc5[nH]4)c3Cl)C2=O)C(=O)N1` (stereo not shown) [FDAB-75], the inhibition at 1 µM in assay [1] was 50 to 80%. Also, in assay [2], the IC50 is 1 to 10 nM.
`O=C(C#Cc1ccc(Cl)cc1)NCc1ccc2c(c1F)CN(C1CCC(=O)NC1=O)C2=O` (stereo not shown) [FDAB-145]: the inhibition at 1 µM in assay [1] is above 80%. The IC50 in assay [2] was below 1 nM.
Consider `Nc1cc(C(=O)NCc2ccc3c(c2F)CN(C2CCC(=O)NC2=O)C3=O)ccc1Cl` (stereo not shown) [FDAB-113], for which, in assay [1], the inhibition at 1 µM is above 80%. Moreover, in assay [2], the half-maximal inhibitory concentration (IC50) fell in the range of 10 to 100 nM.
On the same counts, the results for `O=C(CCOc1ccccc1)NCc1ccc2c(c1F)CN(C1CCC(=O)NC1=O)C2=O` (stereo not shown) [FDAB-154] are above 80% and 1 to 10 nM.
For the compound `Cc1cccc(C(=O)NCc2ccc3c(c2F)CN(C2CCC(=O)NC2=O)C3=O)c1` (stereo not shown) [FDAB-89], the inhibition at 1 µM in assay [1] is below 25%. Further, the IC50 in assay [2] is above 1000 nM.
Taken in the same sequence, the figures for `O=C1CCC(N2Cc3cc(CNC(=O)c4ccc(Cl)cn4)c(F)cc3C2=O)C(=O)N1` (stereo not shown) [FDAB-56] were below 25% and above 1000 nM.
As to `O=C1CCC(N2Cc3cc(CNC(=O)c4cncs4)c(F)cc3C2=O)C(=O)N1` (stereo not shown) [FDAB-44], the inhibition at 1 µM in assay [1] is below 25%. Besides, in assay [2], the IC50 was above 1000 nM.
On the same counts, the results for `O=C(CCSC(=S)SCc1ccccc1)NCc1ccc2c(c1F)CN(C1CCC(=O)NC1=O)C2=O` (stereo not shown) [FDAB-161] are above 80% and below 1 nM.
With `COc1ccc(C(=O)NCc2ccc3c(c2F)CN(C2CCC(=O)NC2=O)C3=O)cc1` (stereo not shown) [FDAB-85], in assay [1], the inhibition at 1 µM was above 80%. Further, in assay [2], the half-inhibitory concentration (IC50) was in the range of 10 to 100 nM.
Turning to `N#Cc1ccc2c(c1Cl)CN(C1CCC(=O)NC1=O)C2=O` (stereo not shown) [FDAB-10], the inhibition at 1 µM in assay [1] is below 25%. Moreover, in assay [2], the half-inhibitory concentration (IC50) is above 1000 nM.
Consider `O=C1CCC(N2Cc3c(ccc(CNC(=O)c4ccc5c(c4)CC5)c3F)C2=O)C(=O)N1` (stereo not shown) [FDAB-98], for which, in assay [1], the inhibition at 1 µM is above 80%. The IC50 in assay [2] was in the range of 1 to 10 nM.
`O=C1CCC(N2Cc3c(CNC(=O)C(F)(F)c4ccc(Cl)cc4)cc(F)cc3C2=O)C(=O)N1` (stereo not shown) [FDAB-171]: in assay [1], the inhibition at 1 µM was below 25%. For the same compound, the 50% inhibitory concentration (IC50) in assay [2] fell in the range of 100 to 1000 nM.

Usually IC50 stands for the concentration that inhibits the measured activity by half.
